In patent US10143686B2, “Oxidosqualene cyclase as a protein target for anticancer therapeutics” (The Curators of the University of Missouri, priority 2010, dated 2018) one finds IC50 data, which are given here for one compound.

Structures can show the parent of a compound that is named as a salt. Where two headings read alike, the source gives them in different places.

Type in all cases: cell-based
Holding throughout (conditions): Homo sapiens

Assay [1] concerns NCI-H23 lung cancer cells. Description: SRB cell viability assay, NCI-H23. How it is done:
(§1) The effect of OSC inhibition was evaluated in additional cancer cell lines as well. Cancer cell lines may be purchased from ATCC (Manassas, Va.). The SRB assay has been employed for determination of the inhibitory effects of RO 48-8071 on growth of different cancer cells. Cells were seeded into 96-well plates and incubated overnight at 37° C. with 5% CO2. The culture medium was removed after 24 hours, and cells were washed with DMEM/F12 medium and then treated with various concentrations of RO 48-8071 in 5% FBS culture medium for 24 and 48 hours. Surviving or adherent cells were fixed in situ by withdrawing the growth medium, adding 100 μl PBS and 100 μl 50% trichloroacetic acid and then incubating at 4° C. for one hour. Cells were washed with ice-cold water, dried at room temperature (RT), and then stained with 50 μl 4% SRB for eight minutes at RT. Unbound dye was removed by washing with cold 1% acetic acid for five times, and plates were dried at RT. Bound stain was solubilized with 150 μl 10 mM Tris buffer and absorbance of samples was read at 520 nm with a SpecTRA MAX 190 microplate reader (Molecular Devices, Sunnyvale, Calif.). Six wells were used for each concentration, and each experiment was performed two to three times.
Effect of RO 48-8071 on lung cancer cell line H23 viability. […] The culture mediums employed 10% FBS RPMI-1640 for culture and 5% FBS RPMI-1640 for treatment.

Assay [2] relates to LNCaP prostate cancer cells. Kind of assay: SRB cell viability assay, LNCaP. How it is done: as §1
Effect of RO 48-8071 prostate cancer cell line LNCaP viability. […] The culture mediums employed 20% FBS RPMI-1640 for culture and 10% FBS RPMI-1640 for treatment.

The subject of a further assay is LoVo colon cancer cells. Kind of assay: SRB cell viability assay, LoVo. As for the experimental part:
as §1
Effect of RO 48-8071 on colon cancer cell LoVo viability. […] The culture mediums employed 10% FBS F-12K for culture and 5% FBS F-12K for treatment.

The mark [3] stands for this setting: 24 hours, read-out: IC50 (μM) (24 hours).
The mark [4] stands for this setting: 48 hours, read-out: IC50 (μM) (48 hours).

With `C=CCN(C)CCCCCCOc1ccc(C(=O)c2ccc(Br)cc2)c(F)c1` [Ro 48-8071, 4′-[6-(Allylmethylamino)hexyloxy]-4-bromo-2′-fluorobenzophenone fumarate], the IC50 came out at 14.2 ± 1.28 µM in assay [1] (setting [3]); 10.3 ± 0.303 µM in assay [1] (setting [4]); 18.1 ± 3.22 µM in assay [2] (setting [3]); 11.8 ± 0.431 µM in assay [2] (setting [4]); 9.461 ± 0.07 µM in the assay on LoVo colon cancer cells (setting [3]); 3.27 ± 0.541 µM in the assay on LoVo colon cancer cells (setting [4]).

A word on the IC50: it is the concentration that gives 50% inhibition.
